# Data from ChEMBL document CHEMBL1142500, “'Reverse' alpha-ketoamide-based p38 MAP kinase inhibitors” (Bioorg Med Chem Lett, 2008).
# Key:
# THP-1 = test: Inhibition of LPS-induced TNFalpha production in human THP1 cells; format: functional, cell-based
# [1] = Volume of distribution at steady state in rat at 10 mg/kg, iv; format: ADME, organism-based; set-up: dose 10 mg/kg, route intravenous; conditions: in vivo, read-out: Vdss
# [2] = molecular target: T1, Mitogen-activated protein kinase 14 (Homo sapiens, UniProt Q16539); test: Inhibition of human p38alpha phosphorylation
# T1 sequence (Q16539 whole entry): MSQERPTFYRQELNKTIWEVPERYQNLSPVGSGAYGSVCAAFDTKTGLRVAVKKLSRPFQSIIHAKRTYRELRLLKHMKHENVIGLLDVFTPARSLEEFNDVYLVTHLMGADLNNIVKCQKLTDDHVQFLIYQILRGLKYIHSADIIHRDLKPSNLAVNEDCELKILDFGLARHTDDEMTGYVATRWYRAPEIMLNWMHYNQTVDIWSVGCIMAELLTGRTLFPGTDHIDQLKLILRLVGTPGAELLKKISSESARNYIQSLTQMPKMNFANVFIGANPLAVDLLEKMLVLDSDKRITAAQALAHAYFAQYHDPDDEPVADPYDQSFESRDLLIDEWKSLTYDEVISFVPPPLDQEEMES
# [3] = Clearance in rat at 10 mg/kg, iv; format: ADME, organism-based; set-up: dose 10 mg/kg, route intravenous; conditions: in vivo
# [4] = Oral bioavailability in rat at 30 mg/kg; format: ADME, organism-based; conditions: in vivo
# [5] = Half life in rat at 30 mg/kg, po; format: ADME, organism-based; set-up: dose 30 mg/kg, route oral; conditions: in vivo
# [6] = Cmax in rat at 30 mg/kg, po; format: ADME, organism-based; set-up: dose 30 mg/kg, route oral; conditions: in vivo
# [7] = molecular target: T1, Mitogen-activated protein kinase 14; test: Inhibition of human p38alpha
# [8] = Tmax in rat at 30 mg/kg, po; format: ADME, organism-based; set-up: dose 30 mg/kg, route oral; conditions: in vivo
# [9] = AUC in rat at 30 mg/kg, po; format: ADME, organism-based; set-up: dose 30 mg/kg, route oral; conditions: plasma
Compound,IC50 (THP-1) [nM],IC50 [2] [nM],IC50 [7] [nM],further results
Cn1nc(C(C)(C)C)cc1NC(=O)C(=O)c1ccc(OCCN2CCOCC2)c2ccccc12,440,–,–,–
Cc1cccc(-n2nc(C(C)(C)C)cc2/C(=N/O)C(=O)Nc2ccc(OCCN3CCOCC3)c3ccccc23)c1,49,100,59,Vd [1]: 1.5 L/kg; clearance [3]: 10.2 mL/min/kg; bioavailability [4]: 54%; half-life [5]: 2.9 h; Cmax [6]: 4000 ng/mL; Tmax [8]: 1.5 h; AUC [9]: 26000 ng·h/mL
Cn1nc(C(C)(C)C)cc1NC(=O)C(=O)c1ccc(-c2ccc(CN3CCOCC3)nc2)c2ccccc12,850,–,–,–
Cc1oc(C(C)(C)C)cc1C(=O)C(=O)Nc1ccc(OCCN2CCOCC2)c2ccccc12,61,270,22,–
Cc1ccc(-n2nc(C(C)(C)C)cc2/C(=C/O)C(=O)Nc2ccc(OCCN3CCOCC3)c3ccccc23)cc1,3300,–,–,–

# The remaining compounds from weak to strong by IC50 (THP-1), led by results:
IC50 (THP-1) [nM],IC50 [2] [nM],IC50 [7] [nM],Compound,further results
460,–,–,Cc1oc(C(C)(C)C)cc1C(=O)C(=O)Nc1ccc(Nc2ncccn2)c2ccccc12,–
330,–,–,Cc1ccc(-n2nc(C(C)(C)C)cc2C(=O)C(=O)Nc2ccc(OCCN3CCOCC3)c3ccccc23)cc1,–
280,–,–,Cc1cccc(-n2nc(C(C)(C)C)cc2C(=O)C(=O)Nc2ccc(OCCN3CCOCC3)c3ccccc23)c1,–
180,–,–,CC(C)(C)c1cc(C(=O)C(=O)Nc2ccc(OCCN3CCOCC3)c3ccccc23)n(-c2ccc(F)c(F)c2)n1,–
70,70,14,Cn1nc(C(C)(C)C)cc1C(=O)C(=O)Nc1ccc(OCCN2CCOCC2)c2ccccc12,–
59,–,–,Cc1oc(C(C)(C)C)cc1C(=O)C(=O)Nc1ccc(Nc2ccncn2)c2ccccc12,–
9,20,59,Cc1oc(C(C)(C)C)cc1C(=O)C(=O)Nc1ccc(-c2ccc(CN3CCOCC3)nc2)c2ccccc12,–
